Laboratory results taken from publication PMC7180948, “New Insights into 4-Anilinoquinazolines as Inhibitors of Cardiac Troponin I–Interacting Kinase (TNNi3K)” (Molecules, 2020).

Assays:
Assay in all cases: biochemical
Design in all cases: KINOMEscan competition binding panel (Eurofins DiscoverX), single concentration, % inhibition
Details in all cases: read-out: 7 at 1 µM % inhibition
[1] = molecular target: TNIK (Homo sapiens, UniProt Q9UKE5)
Method in brief: (§1)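 Kinome-wide profiling (KINOMEscan, >400 human kinases) was run at 1 µM compound.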

[2] = molecular target: T1, ERK4 (Homo sapiens, UniProt P31152)
T1 construct: gene MAPK4
Method in brief: as §1

[3] = molecular target: NEK11 (Homo sapiens, UniProt Q8NG66)
Method in brief: as §1

[4] = molecular target: KIT(A829P) (Homo sapiens, UniProt P10721, A829P)
Method in brief: as §1

[5] = molecular target: SNRK (Homo sapiens, UniProt Q9NRH2)
Method in brief: as §1

[6] = molecular target: T2, p38-gamma (Homo sapiens, UniProt P53778)
T2 construct: gene MAPK12
Method in brief: as §1

[7] = molecular target: PRKCI (Homo sapiens, UniProt P41743)
Method in brief: as §1

[8] = molecular target: PIK3CA(M1043I) (Homo sapiens, UniProt P42336, M1043I)
Method in brief: as §1

[9] = molecular target: MAP3K1 (Homo sapiens, UniProt Q13233)
Method in brief: as §1

[10] = molecular target: TEC (Homo sapiens, UniProt P42680)
Method in brief: as §1

[11] = molecular target: PRKX (Homo sapiens, UniProt P51817)
Method in brief: as §1

[12] = molecular target: WEE2 (Homo sapiens, UniProt P0C1S8)
Method in brief: as §1

[13] = molecular target: TIE1 (Homo sapiens, UniProt P35590)
Method in brief: as §1

[14] = molecular target: EPHA7 (Homo sapiens, UniProt Q15375)
Method in brief: as §1

[15] = molecular target: T3, SNARK (Homo sapiens, UniProt Q9H093)
T3 construct: gene NUAK2
Method in brief: as §1

[16] = molecular target: PLK1 (Homo sapiens, UniProt P53350)
Method in brief: as §1

[17] = molecular target: FGR (Homo sapiens, UniProt P09769)
Method in brief: as §1

[18] = molecular target: CSNK2A2 (Homo sapiens, UniProt P19784)
Method in brief: as §1

[19] = molecular target: T4, AMPK-alpha2 (Homo sapiens, UniProt P54646)
T4 construct: gene PRKAA2
Method in brief: as §1

[20] = molecular target: STK39 (Homo sapiens, UniProt Q9UEW8)
Method in brief: as §1

[21] = molecular target: CDK3 (Homo sapiens, UniProt Q00526)
Method in brief: as §1

[22] = molecular target: EGFR(L858R) (Homo sapiens, UniProt P00533, L858R)
Method in brief: as §1

[23] = molecular target: LRRK2(G2019S) (Homo sapiens, UniProt Q5S007, G2019S)
Method in brief: as §1

[24] = molecular target: TGFBR2 (Homo sapiens, UniProt P37173)
Method in brief: as §1

Sequence of CDK3 (Q00526 whole entry): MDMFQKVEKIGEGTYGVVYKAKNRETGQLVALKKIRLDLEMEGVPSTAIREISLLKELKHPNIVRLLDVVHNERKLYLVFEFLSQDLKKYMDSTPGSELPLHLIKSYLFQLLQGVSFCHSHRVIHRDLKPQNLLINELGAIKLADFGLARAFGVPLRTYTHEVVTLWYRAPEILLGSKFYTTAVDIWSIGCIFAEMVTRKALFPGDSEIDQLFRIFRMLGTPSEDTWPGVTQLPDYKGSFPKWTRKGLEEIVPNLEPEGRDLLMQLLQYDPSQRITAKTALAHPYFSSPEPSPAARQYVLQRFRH
Sequence of EGFR(L858R) (P00533 whole entry L858R): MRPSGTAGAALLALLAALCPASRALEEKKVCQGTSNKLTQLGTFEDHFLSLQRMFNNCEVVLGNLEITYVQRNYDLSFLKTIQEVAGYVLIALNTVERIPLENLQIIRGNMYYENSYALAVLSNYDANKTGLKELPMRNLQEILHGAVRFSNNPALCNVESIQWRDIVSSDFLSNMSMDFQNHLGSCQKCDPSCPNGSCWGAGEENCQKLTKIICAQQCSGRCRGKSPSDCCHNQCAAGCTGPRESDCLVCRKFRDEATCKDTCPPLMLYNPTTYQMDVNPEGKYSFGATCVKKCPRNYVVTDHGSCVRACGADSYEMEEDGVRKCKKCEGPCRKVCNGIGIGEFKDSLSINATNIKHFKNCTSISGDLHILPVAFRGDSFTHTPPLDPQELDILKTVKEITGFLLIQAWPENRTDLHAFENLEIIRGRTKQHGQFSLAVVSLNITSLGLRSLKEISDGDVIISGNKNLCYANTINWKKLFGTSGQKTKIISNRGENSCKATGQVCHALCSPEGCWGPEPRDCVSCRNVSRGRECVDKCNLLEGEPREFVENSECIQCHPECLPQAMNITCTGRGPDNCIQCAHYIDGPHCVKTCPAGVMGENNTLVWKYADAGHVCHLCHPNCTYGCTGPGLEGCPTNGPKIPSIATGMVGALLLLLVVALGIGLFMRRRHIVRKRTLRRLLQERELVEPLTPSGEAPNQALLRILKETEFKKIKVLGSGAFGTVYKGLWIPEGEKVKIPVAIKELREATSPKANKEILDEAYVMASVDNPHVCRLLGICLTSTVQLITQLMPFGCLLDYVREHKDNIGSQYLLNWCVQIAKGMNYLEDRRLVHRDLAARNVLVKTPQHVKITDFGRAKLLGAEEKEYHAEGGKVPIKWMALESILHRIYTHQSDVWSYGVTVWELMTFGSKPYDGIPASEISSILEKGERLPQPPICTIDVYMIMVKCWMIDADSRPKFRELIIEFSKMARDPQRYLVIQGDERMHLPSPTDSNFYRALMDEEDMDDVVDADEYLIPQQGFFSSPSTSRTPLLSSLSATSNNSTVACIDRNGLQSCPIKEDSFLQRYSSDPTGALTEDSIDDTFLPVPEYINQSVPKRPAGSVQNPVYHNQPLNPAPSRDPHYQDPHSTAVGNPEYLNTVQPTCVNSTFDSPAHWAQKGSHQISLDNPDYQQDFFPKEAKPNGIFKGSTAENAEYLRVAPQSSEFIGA
Sequence of PLK1 (P53350 whole entry): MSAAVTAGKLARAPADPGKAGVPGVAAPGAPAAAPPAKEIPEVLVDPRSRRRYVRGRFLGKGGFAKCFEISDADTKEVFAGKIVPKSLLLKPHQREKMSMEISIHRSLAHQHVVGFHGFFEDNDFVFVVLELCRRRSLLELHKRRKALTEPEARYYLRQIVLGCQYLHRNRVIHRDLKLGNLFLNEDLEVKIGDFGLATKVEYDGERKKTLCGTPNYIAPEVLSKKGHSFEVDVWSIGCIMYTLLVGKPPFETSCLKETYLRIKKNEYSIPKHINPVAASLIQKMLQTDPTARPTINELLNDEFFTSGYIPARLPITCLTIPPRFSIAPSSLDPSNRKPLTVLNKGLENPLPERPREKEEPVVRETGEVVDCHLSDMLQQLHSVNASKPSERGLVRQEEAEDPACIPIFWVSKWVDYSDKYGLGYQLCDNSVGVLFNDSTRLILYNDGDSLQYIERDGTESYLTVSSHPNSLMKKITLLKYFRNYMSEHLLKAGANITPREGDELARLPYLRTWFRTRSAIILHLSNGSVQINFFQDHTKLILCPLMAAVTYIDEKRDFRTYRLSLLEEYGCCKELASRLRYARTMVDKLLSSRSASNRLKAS
T1 sequence (P31152 whole entry): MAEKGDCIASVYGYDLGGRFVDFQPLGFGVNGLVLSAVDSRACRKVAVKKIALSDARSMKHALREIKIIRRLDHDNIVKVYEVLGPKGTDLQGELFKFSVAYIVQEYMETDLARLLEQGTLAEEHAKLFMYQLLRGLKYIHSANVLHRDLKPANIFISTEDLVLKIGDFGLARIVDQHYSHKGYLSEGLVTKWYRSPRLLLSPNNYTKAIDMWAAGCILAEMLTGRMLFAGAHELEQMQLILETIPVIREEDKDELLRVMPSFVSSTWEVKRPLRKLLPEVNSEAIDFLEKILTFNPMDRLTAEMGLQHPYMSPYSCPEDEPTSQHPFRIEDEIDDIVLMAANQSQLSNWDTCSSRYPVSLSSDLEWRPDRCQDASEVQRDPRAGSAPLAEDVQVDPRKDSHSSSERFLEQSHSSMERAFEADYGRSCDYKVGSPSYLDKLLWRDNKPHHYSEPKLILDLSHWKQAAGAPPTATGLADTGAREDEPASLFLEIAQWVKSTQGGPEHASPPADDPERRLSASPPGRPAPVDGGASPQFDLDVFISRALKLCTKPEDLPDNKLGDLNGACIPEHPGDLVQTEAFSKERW
Sequence of MAP3K1 (Q13233 whole entry): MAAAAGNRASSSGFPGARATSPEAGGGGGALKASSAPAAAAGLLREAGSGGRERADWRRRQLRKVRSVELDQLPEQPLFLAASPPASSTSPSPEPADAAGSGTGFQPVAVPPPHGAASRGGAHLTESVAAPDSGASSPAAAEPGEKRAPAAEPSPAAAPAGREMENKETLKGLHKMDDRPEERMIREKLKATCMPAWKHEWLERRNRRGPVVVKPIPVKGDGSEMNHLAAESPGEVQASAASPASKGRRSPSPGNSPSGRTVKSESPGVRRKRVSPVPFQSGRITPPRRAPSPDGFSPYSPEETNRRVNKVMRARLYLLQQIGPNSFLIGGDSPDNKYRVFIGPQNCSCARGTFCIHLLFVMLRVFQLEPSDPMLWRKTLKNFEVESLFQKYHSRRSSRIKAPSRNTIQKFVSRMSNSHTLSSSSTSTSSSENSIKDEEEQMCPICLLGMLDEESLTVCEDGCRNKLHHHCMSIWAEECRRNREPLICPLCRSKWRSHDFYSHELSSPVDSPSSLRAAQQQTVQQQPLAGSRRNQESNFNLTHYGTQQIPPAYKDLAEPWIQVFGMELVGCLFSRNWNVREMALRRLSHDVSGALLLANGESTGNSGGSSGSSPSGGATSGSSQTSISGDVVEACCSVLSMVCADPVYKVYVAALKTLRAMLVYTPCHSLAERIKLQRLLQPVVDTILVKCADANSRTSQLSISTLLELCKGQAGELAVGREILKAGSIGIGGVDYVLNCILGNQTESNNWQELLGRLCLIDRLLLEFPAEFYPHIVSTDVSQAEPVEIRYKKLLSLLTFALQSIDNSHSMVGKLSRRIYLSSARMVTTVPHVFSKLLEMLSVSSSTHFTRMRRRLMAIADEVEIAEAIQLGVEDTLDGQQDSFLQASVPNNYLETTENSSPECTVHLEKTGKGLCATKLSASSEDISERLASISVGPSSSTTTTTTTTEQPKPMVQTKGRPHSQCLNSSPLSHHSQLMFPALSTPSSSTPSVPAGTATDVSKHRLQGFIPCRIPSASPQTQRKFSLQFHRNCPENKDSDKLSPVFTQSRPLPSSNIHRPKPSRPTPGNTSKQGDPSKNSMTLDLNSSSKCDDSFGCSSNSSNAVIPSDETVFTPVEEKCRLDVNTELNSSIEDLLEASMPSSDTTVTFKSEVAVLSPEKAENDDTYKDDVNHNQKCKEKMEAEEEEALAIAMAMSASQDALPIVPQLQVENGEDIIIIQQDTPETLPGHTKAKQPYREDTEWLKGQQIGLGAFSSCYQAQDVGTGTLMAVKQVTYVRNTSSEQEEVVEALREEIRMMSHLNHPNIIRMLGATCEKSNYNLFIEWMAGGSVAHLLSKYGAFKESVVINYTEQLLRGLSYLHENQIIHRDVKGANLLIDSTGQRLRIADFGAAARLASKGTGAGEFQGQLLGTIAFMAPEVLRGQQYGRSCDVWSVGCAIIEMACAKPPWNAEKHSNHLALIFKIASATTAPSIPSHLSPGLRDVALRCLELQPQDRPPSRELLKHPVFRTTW
T4 sequence (P54646 whole entry): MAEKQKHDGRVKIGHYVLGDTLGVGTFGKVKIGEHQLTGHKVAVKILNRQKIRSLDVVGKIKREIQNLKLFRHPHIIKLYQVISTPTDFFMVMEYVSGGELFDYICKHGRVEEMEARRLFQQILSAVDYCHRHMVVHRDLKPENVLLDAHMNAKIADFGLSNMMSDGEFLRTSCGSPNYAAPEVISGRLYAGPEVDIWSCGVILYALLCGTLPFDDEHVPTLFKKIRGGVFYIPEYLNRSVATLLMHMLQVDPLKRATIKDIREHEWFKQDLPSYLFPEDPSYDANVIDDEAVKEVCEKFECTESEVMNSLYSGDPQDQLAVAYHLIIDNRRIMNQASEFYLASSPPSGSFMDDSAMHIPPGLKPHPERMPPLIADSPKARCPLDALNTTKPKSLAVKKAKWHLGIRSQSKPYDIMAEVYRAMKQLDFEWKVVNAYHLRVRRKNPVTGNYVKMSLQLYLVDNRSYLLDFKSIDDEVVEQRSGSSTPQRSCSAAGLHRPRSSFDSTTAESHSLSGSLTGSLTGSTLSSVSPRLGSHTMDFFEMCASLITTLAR

In the case of `CNS(=O)(=O)c1ccc(N(C)C)c(Nc2ncnc3cc(OC)c(OC)cc23)c1` [compound 7, 3-((6,7-dimethoxyquinazolin-4-yl)amino)-4-(dimethylamino)-N-methylbenzenesulfonamide], the inhibition at 1 µM [1] is reported as 7%, the inhibition at 1 µM [2] is reported as 0% and the inhibition at 1 µM [3] is reported as 0%. It also gave an inhibition at 1 µM [4] of 61%, an inhibition at 1 µM [5] of 14% and an inhibition at 1 µM [6] of 0%. The inhibition at 1 µM [7] was 5%, the inhibition at 1 µM [8] was 29% and the inhibition at 1 µM [9] was 0%. For the same compound, the inhibition at 1 µM [10] was 0%, the inhibition at 1 µM [11] was 0% and the inhibition at 1 µM [12] was 0%. It also gave an inhibition at 1 µM [13] of 0%, an inhibition at 1 µM [14] of 0% and an inhibition at 1 µM [15] of 0%. The inhibition at 1 µM [16] was 0%, the inhibition at 1 µM [17] was 0% and the inhibition at 1 µM [18] was 13%. The inhibition at 1 µM [19] was 12%, the inhibition at 1 µM [20] was 8% and the inhibition at 1 µM [21] was 1%. For the same compound, the inhibition at 1 µM [22] was 8%, the inhibition at 1 µM [23] was 23% and the inhibition at 1 µM [24] was 0%.
